Assay results as given in patent US20200131142A1, “FARNESOID X RECEPTOR AGONISTS AND USES THEREOF” (Metacrine, Inc., priority 2017, published 2020).

Biological target: T1, hFXR (Homo sapiens, UniProt Q96RI1)
T1 construct: expressed in transfected cells; host or cells: CV-1 cells
T1 sequence (Q96RI1 1-486): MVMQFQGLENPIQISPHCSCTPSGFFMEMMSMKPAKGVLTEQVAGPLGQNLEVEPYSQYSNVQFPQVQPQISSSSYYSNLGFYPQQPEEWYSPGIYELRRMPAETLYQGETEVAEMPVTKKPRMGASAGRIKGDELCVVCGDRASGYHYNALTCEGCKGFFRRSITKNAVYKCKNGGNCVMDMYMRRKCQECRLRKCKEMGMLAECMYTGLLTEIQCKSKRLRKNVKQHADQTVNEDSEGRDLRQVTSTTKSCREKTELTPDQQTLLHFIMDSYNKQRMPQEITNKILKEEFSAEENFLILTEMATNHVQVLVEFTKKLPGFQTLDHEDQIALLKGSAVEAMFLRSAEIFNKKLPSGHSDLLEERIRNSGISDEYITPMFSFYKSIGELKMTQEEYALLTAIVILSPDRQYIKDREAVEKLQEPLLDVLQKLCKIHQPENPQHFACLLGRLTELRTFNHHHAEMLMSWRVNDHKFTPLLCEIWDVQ
T1 sequence (P19793 1-462 partner): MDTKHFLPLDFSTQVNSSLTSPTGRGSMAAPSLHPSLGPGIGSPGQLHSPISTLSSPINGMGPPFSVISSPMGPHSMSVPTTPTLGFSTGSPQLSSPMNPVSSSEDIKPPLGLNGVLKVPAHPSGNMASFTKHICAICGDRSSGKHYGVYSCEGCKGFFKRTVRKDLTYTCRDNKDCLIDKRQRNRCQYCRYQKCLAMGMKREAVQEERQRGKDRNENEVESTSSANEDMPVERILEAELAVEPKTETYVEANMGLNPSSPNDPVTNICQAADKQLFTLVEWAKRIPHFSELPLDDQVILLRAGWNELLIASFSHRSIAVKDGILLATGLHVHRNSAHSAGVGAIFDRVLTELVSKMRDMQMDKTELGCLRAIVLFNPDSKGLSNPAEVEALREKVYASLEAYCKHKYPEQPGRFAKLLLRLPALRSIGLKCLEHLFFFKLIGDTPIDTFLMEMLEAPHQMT
Test: In Vitro FXR Assay (TK): hFXR/hRXR TK-ECRE-luc reporter in transfected CV-1 cells
Assay type: cell-based
Conditions: 18 hrs incubation, luminescence, compounds with maximum efficacy <25% of the Fexarmine control classified as '+'
Protocol: Example B-1: In Vitro FXR Assay (TK)
CV-1 cells were seeded at a density of 2,000,000 cells in a T175 flask with DMEM+10% charcoal double-stripped FBS and incubated at 37° C. in 5% CO2 for 18 h (O/N).
After 18 h of incubation, the medium in the T175 flask was changed with fresh DMEM+10% charcoal super-stripped serum. In a polypropylene tube, 2500 μL OptiMEM (Life Technologies, Cat #31985-062) was combined with expression plasmids for hFXR, hRXR, TK-ECRE-luc and pCMX-YFP. The tube was then briefly vortexed and incubated at room temperature for 5 minutes. Transfection reagent (X-tremeGENE HP from Roche, Cat #06 366 236 001) was added to the OptiMEM/plasmid mixture vortexed and incubated at room temperature for 20 minutes. Following incubation, the transfection reagent/DNA mixture complex was added to cells in the T175 flask and the cells were incubated at 37° C. in 5% CO2 for 18 h (O/N).
Compounds were serially diluted in DMSO and added to transfected CV-1 cells. The cells were then incubated for 18 hrs. The next day cells were lysed and examined for luminescence.

| Structure (SMILES) | EC50 |
| --- | --- |
| COc1ncc(-c2cccc(N(C[C@H]3CC[C@@H](c4ccc(OC)c(C)c4)CC3)C(=O)[C@H]3CC[C@H](O)CC3)c2)s1 [Compound 2, trans-4-Hydroxy-N-((cis-4-(4-methoxy-3-methylphenyl)cyclohexyl)methyl)-N-(3-(2-methoxythiazol-5-yl)phenyl)cyclohexanecarboxamide] | ≥ 1000 nM |
| COc1ccc([C@H]2CC[C@H](CN(c3cccc(-c4cnc(O)s4)c3)C(=O)[C@H]3CC[C@H](O)CC3)CC2)cc1C [Compound 3, trans-4-Hydroxy-N-(3-(2-hydroxythiazol-5-yl)phenyl)-N-((trans-4-(4-methoxy-3-methylphenyl)cyclohexyl)methyl) cyclohexanecarboxamide] | 250 to 1000 nM |
| CCO[C@H]1CC[C@H](C(=O)N(C[C@H]2CC[C@H](c3ccc(OC)c(C)c3)CC2)c2cccc(-c3cnc(OC)s3)c2)CC1 [Compound 4, trans-4-Ethoxy-N-((trans-4-(4-methoxy-3-methylphenyl)cyclohexyl)methyl)-N-(3-(2-methoxythiazol-5-yl)phenyl)cyclohexanecarboxamide] | 250 to 1000 nM |
| COc1ccc([C@H]2CC[C@H](CN(c3cccc(-c4cncs4)c3)C(=O)[C@H]3CC[C@H](O)CC3)CC2)cc1C [Compound 6.02, trans-4-Hydroxy-N-((trans-4-(4-methoxy-3-methylphenyl)cyclohexyl)methyl)-N-(3-(thiazol-5-yl)phenyl)cyclohexanecarboxamide] | 250 to 1000 nM |
| COc1ccc([C@H]2CC[C@H](CN(c3cccc(-c4nc(C)cs4)c3)C(=O)[C@H]3CC[C@H](O)CC3)CC2)cc1C [Compound 7.01, trans-4-Hydroxy-N-((trans-4-(4-methoxy-3-methylphenyl)cyclohexyl)methyl)-N-(3-(4-methylthiazol-2-yl)phenyl)cyclohexanecarboxamide] | ≥ 1000 nM |
| COc1ccc([C@H]2CC[C@H](CN(c3cccc(-c4csc(C)n4)c3)C(=O)[C@H]3CC[C@H](O)CC3)CC2)cc1C [Compound 7.02, trans-4-Hydroxy-N-((trans-4-(4-methoxy-3-methylphenyl)cyclohexyl)methyl)-N-(3-(2-methylthiazol-4-yl)phenyl)cyclohexanecarboxamide] | 250 to 1000 nM |
| COc1ccc([C@H]2CC[C@H](CN(c3cccc(-c4ncc(C)s4)c3)C(=O)[C@H]3CC[C@H](O)CC3)CC2)cc1C [Compound 7.03, trans-4-Hydroxy-N-((trans-4-(4-methoxy-3-metthylphenyl)cyclohexyl)methyl)-N-(3-(5-methylthiazol-2-yl)phenyl)cyclohexanecarboxamide] | ≥ 1000 nM |
| COc1ccc([C@H]2CC[C@H](CN(c3cccc(-c4sc(C)nc4C)c3)C(=O)[C@H]3CC[C@H](O)CC3)CC2)cc1C [Compound 7.04, trans-N-(3-(2,4-Dimethylthiazol-5-yl)phenyl)-4-hydroxy-N-((trans-4-(4-methoxy-3-methylphenyl)cyclohexyl)methyl) cyclohexanecarboxamide] | ≥ 1000 nM |
| COc1ccc([C@H]2CC[C@H](CN(c3cccc(-c4cnc(C(C)C)s4)c3)C(=O)[C@H]3CC[C@H](O)CC3)CC2)cc1C [Compound 7.06] | ≤ 250 nM |
| COc1ccc([C@H]2CC[C@H](CN(c3cccc(-c4cnc(C(C)(C)C)s4)c3)C(=O)[C@H]3CC[C@H](O)CC3)CC2)cc1C [Compound 7.07, trans-N-(3-(2-(tert-Butyl)thiazol-5-yl)phenyl)-4-hydroxy-N-((trans-4-(4-methoxy-3-methylphenyl)cyclohexyl)methyl) cyclohexanecarboxamide] | ≤ 250 nM |

Other lines, results leading:

| EC50 | Structure (SMILES) |
| --- | --- |
| ≤ 250 nM | COc1ncc(-c2cccc(N(C[C@H]3CC[C@H](c4ccc(OC)c(C)c4)CC3)C(=O)[C@H]3CC[C@H](O)CC3)c2)s1 [Compound 1, trans-4-Hydroxy-N-((trans-4-(4-methoxy-3-methylphenyl)cyclohexyl)methyl)-N-(3-(2-methoxythiazol-5-yl)phenyl)cyclohexanecarboxamide] |
| ≤ 250 nM | COc1ncc(-c2cccc(N(C[C@H]3CC[C@H](c4ccc(OC)c(C)c4)CC3)C(=O)C3CCCCC3)c2)s1 [Compound 1.01, N-((trans-4-(4-Methoxy-3-methylphenyl)cyclohexyl)methyl)-N-(3-(2-methoxythiazol-5-yl)phenyl)cyclohexanecarboxamide] |
| ≤ 250 nM | COc1ncc(-c2cccc(N(C[C@H]3CC[C@H](c4ccc(OC)c(C)c4)CC3)C(=O)[C@H]3CC[C@@H](O)CC3)c2)s1 [Compound 5, cis-4-Hydroxy-N-((trans-4-(4-methoxy-3-methylphenyl)cyclohexyl)methyl)-N-(3-(2-methoxythiazol-5-yl)phenyl)cyclohexanecarboxamide] |
| ≤ 250 nM | COc1ccc([C@H]2CC[C@H](CN(c3cccc(-c4cnc(N5CCCC5)s4)c3)C(=O)[C@H]3CC[C@H](O)CC3)CC2)cc1C [Compound 6, trans-4-Hydroxy-N-((trans-4-(4-methoxy-3-methylphenyl)cyclohexyl)methyl)-N-(3-(2-(pyrrolidin-1-yl)thiazol-5-yl)phenyl)cyclohexanecarboxamide] |
| ≤ 250 nM | COc1ncc(-c2ccnc(N(C[C@H]3CC[C@H](c4ccc(OC)c(C)c4)CC3)C(=O)[C@H]3CC[C@H](O)CC3)c2)s1 [Compound 6.01, trans-4-Hydroxy-N-((trans-4-(4-methoxy-3-methylphenyl)cyclohexyl)methyl)-N-(4-(2-methoxythiazol-5-yl)pyridin-2-yl)cyclohexanecarboxamide] |
| ≤ 250 nM | COc1ccc([C@H]2CC[C@H](CN(c3cccc(-c4cnc(C)s4)c3)C(=O)[C@H]3CC[C@H](O)CC3)CC2)cc1C [Compound 6.03, trans-4-Hydroxy-N-((trans-4-(4-methoxy-3-methylphenyl)cyclohexyl)methyl)-N-(3-(2-methylthiazol-5-yl)phenyl)cyclohexanecarboxamide] |
| ≤ 250 nM | COc1ccc([C@H]2CC[C@H](CN(c3cc(-c4cnc(C5CC5)s4)ccn3)C(=O)[C@H]3CC[C@H](O)CC3)CC2)cc1C [Compound 6.04, trans-N-(4-(2-cyclopropylthiazol-5-yl)pyridin-2-yl)-4-hydroxy-N-((trans-4-(4-methoxy-3-methylphenyl)cyclohexyl)methyl) cyclohexanecarboxamide] |
| ≤ 250 nM | COc1ccc(C23CCC(CN(c4cc(-c5cnc(C6CC6)s5)ccn4)C(=O)[C@H]4CC[C@H](O)CC4)(CC2)CC3)cc1C [Compound 6.05, trans-N-(4-(2-Cyclopropylthiazol-5-yl)pyridin-2-yl)-4-hydroxy-N-((4-(4-methoxy-3-methylphenyl)bicyclo[2.2.2]octan-1-yl)methyl)cyclohexanecarboxamide] |
| ≤ 250 nM | COc1ccc([C@H]2CC[C@H](CN(c3cccc(/C=C/c4nccs4)c3)C(=O)[C@H]3CC[C@H](O)CC3)CC2)cc1C [Compound 6.06, trasn-4-Hydroxy-N-((trans-4-(4-methoxy-3-methylphenyl)cyclohexyl)methyl)-N-(3-((E)-2-(thiazol-2-yl)vinyl)phenyl)cyclohexanecarboxamide] |
| ≤ 250 nM | COc1ccc([C@H]2CC[C@H](CN(c3cccc(CCc4nccs4)c3)C(=O)[C@H]3CC[C@H](O)CC3)CC2)cc1C [Compound 6.07, trans-4-Hydroxy-N-((trans-4-(4-methoxy-3-methylphenyl)cyclohexyl)methyl)-N-(3-(2-(thiazol-2-yl)ethyl)phenyl)cyclohexanecarboxamide] |
| ≤ 250 nM | COc1ccc([C@H]2CC[C@H](CN(c3cccc(-c4cnc(C5CC5)s4)c3)C(=O)[C@H]3CC[C@H](O)CC3)CC2)cc1C [Compound 7, trans-N-(3-(2-Cyclopropylthiazol-5-yl)phenyl)-4-hydroxy-N-((trans-4-(4-methoxy-3-methylphenyl)cyclohexyl)methyl) cyclohexanecarboxamide] |
| ≤ 250 nM | CCc1ncc(-c2cccc(N(C[C@H]3CC[C@H](c4ccc(OC)c(C)c4)CC3)C(=O)[C@H]3CC[C@H](O)CC3)c2)s1 [Compound 7.05, trans-N-(3-(2-Ethylthiazol-5-yl)phenyl)-4-hydroxy-N-((trans-4-(4-methoxy-3-methylphenyl)cyclohexyl)methyl) cyclohexanecarboxamide] |
